The test deals with Staphylococcus haemolyticus CNCM I-4170. The test can be described thus: Protocol A: in-vitro malodor inhibition (free thiol groups from Cys-Gly precursor, DTNB absorbance at 412 nm). Type of test: cell-based. The following applies: for inhibition at 0.0006 %: 0.0006 w/v % in medium. From the text:
Further details of such a screening and % inhibition measurement and definition are described further on in this application. The precursor used, which may also be in the form of a human sweat sample, typically generates malodorant sulfur compounds when acted upon by the Staphylococcus haemolyticus cells, or by a β-lyase present in such cells. The malodor inhibition coefficient, as defined herein, reflects the % of reduction in free SH groups generated in the above-mentioned medium by the enzymatic activity of the bacterial cells when in presence of the MOC ingredient or MOC composition in question, as compared to the same measurement in their absence. […] Alternatively, the bacterial cells can be replaced by a β-lyase present in said cells. […] Detection of enzymatic activity inhibition is measured via the sulfur groups, namely thiol groups, freed from the precursor bacterial transformation, by comparison with the reference experiment in the absence of the respective MOC ingredient, said sulfur groups being detected by interaction with DTNB, a known chemical detector system for thiols. The reaction can be monitored by absorbance reading at 412 nm. The procedure can be performed indifferently with either a purified or semi-purified enzyme or intact bacterial cells, as in the case described here. Malodor inhibition coefficient is measured as a function of the percentage of free thiol groups in the medium, over time, by an absorbance method, and reflects the reduction in malodor obtained in the presence of the MOC ingredients and compositions. […] At the end of the growth phase, the bacterial cells were harvested by centrifugation at 5000 rpm for 15 min. The cell pellet was then washed with 0.1 volumes of sterile potassium phosphate buffer 0.1 M, pH 7.5. […] The precursor was used at 0.17 mM final concentration. • Detection reagent DTNB • DTNB (5,5′-Dithio-bis-(2-nitrobenzoic acid; […]

The mark [1] stands for this setting: Table 2, 0.0012 w/v % in medium.
Setting [2] is: Table 2, 0.0025 w/v % in medium.
The mark [3] stands for this setting: Table 2, 0.0125 w/v % in medium.
The mark [4] stands for this setting: Staphylococcus haemolyticus, CNCMI4170, 0.0012 w/v % in medium, read-out: Ingredient Malodor Inhibition Value (%).
[5] abbreviates: Staphylococcus haemolyticus, CNCMI4170, 0.0025 w/v % in medium, read-out: Ingredient Malodor Inhibition Value (%).
[6] abbreviates: Staphylococcus haemolyticus, CNCMI4170, 0.006 w/v % in medium, read-out: Ingredient Malodor Inhibition Value (%).
Where [7] appears, read: Staphylococcus haemolyticus, CNCMI4170, 0.0125 w/v % in medium, read-out: Ingredient Malodor Inhibition Value (%).
Setting [8] is: Staphylococcus haemolyticus, CNCMI4170, 0.025 w/v % in medium, read-out: Ingredient Malodor Inhibition Value (%).
[9] abbreviates: Staphylococcus haemolyticus, CNCMI4170, 0.05 w/v % in medium, read-out: Ingredient Malodor Inhibition Value (%).
[10] abbreviates: Staphylococcus haemolyticus, CNCMI4170, Table 2, 0.0012 w/v % in medium, read-out: Ingredient Malodor Inhibition Value (%).
Setting [11] is: Staphylococcus haemolyticus, CNCMI4170, Table 2, 0.0025 w/v % in medium, read-out: Ingredient Malodor Inhibition Value (%).
[12] abbreviates: Staphylococcus haemolyticus, CNCMI4170, Table 2, 0.005 w/v % in medium, read-out: Ingredient Malodor Inhibition Value (%).
The mark [13] stands for this setting: Staphylococcus haemolyticus, CNCMI4170, Table 2, 0.0125 w/v % in medium, read-out: Ingredient Malodor Inhibition Value (%).
Where [14] appears, read: Staphylococcus haemolyticus, CNCMI4170, Table 2, 0.025 w/v % in medium, read-out: Ingredient Malodor Inhibition Value (%).
Setting [15] is: Staphylococcus haemolyticus, CNCMI4170, Table 2, 0.05 w/v % in medium, read-out: Ingredient Malodor Inhibition Value (%).
[16] abbreviates: Staphylococcus haemolyticus, CNCMI4170, Table 2, read-out: Ingredient Malodor Inhibition Value (%).

Where a name gives a salt, the structure may show the parent alone. Read-outs that look alike come from different tables or passages of the source.

Take `C[C@H]1[C@@H]2CC(C[C@@]13C=CC(=O)CC3)C2(C)C` (single isomer, unassigned; (+)): the “Ingredient Malodor Inhibition Value (%)” value amounted to 0.00% (0.0012 w/v % in medium); 14.02% (0.0025 w/v % in medium); 26.00% (0.006 w/v % in medium); 72.64% (0.0125 w/v % in medium); 75.94% (0.025 w/v % in medium); 75.68% (0.05 w/v % in medium).

As to `CC1=CC[C@H](C(C)CC=O)CC1` (single isomer, unassigned; (+)) [(+)-(4R)-1-P-Menthene-9-carbaldehyde], the “Ingredient Malodor Inhibition Value (%)” value is, setting by setting: under setting [1], 0.00%; under setting [2], 3.44%; (Table 2, 0.005 w/v % in medium) 34.61%; under setting [3], 81.68%; (Table 2, 0.025 w/v % in medium) 97.82%.

For `CC1=CC[C@H](/C=C/C(C)(C)C(C)O)C1(C)C` (single isomer, unassigned; (-)) [(-)-(1′R,E)-3,3-Dimethyl-5-(2′,2′,3′-trimethyl-3′-cyclopenten-1′-yl)-4-penten-2-ol], the “Ingredient Malodor Inhibition Value (%)” value is recorded as 0.00% (0.0012 w/v % in medium); 27.39% (0.0025 w/v % in medium); 75.11% (0.006 w/v % in medium); 76.95% (0.0125 w/v % in medium); 76.65% (0.025 w/v % in medium).

With `O=C1CCCCCCCCCCC(=O)OCCO1` [1,4-Dioxacyclohexadecane-5,16-dione], the inhibition at 0.0012 % under setting [4] amounted to 0%. In addition, the inhibition at 0.0025 % under setting [5] turned out to be 0%. Further, under setting [6], the inhibition at 0.006 % is 0%. Further, the inhibition at 0.0125 % under setting [7] is 28.2%. Moreover, the inhibition at 0.025 % under setting [8] came out at 37.3%. Moreover, the inhibition at 0.05 % under setting [9] was found to be 36.5%.

In the case of `CCCCCCCCCCC=CC=O` [2-Tridecenal (ethyl citrate solution), 2-Tridecenal], the inhibition at 0.0012 % under setting [10] was found to be 29%. The inhibition at 0.0025 % under setting [11] came out at 40.2%. Moreover, under setting [12], the inhibition at 0.005 % worked out at 50%. Moreover, under setting [13], the inhibition at 0.0125 % was found to be 81%.

Regarding `CC(CCO)CC(C)(C)C` (stereo not shown) [3,5,5-Trimethyl-1-hexanol], under setting [4], the inhibition at 0.0012 % worked out at 0%. Further, under setting [5], the inhibition at 0.0025 % is 0%. Besides, the inhibition at 0.006 % under setting [6] worked out at 0%. In addition, the inhibition at 0.0125 % under setting [7] worked out at 0%. Also, the inhibition at 0.025 % under setting [8] is 35%. Under setting [9], the inhibition at 0.05 % worked out at 58.3%. For the same compound, for the setting “Staphylococcus haemolyticus, CNCMI4170, 0.1 w/v % in medium, read-out: Ingredient Malodor Inhibition Value (%)”, the inhibition at 0.1 % came out at 62.9%.

Take `CC(C)CCCC(C)CC=O` (stereo not shown) [3,7-Dimethyloctanal]: the inhibition at 0.0012 % under setting [10] is 0%. Further, the inhibition at 0.0025 % under setting [11] worked out at 0%. The inhibition at 0.005 % under setting [12] turned out to be 18.1%. The inhibition at 0.0125 % under setting [13] worked out at 66.7%.

For `CC(C)c1cccc(C(C)CC=O)c1` (stereo not shown) [3-(3-Isopropyl-1-phenyl)butanal], the “Ingredient Malodor Inhibition Value (%)” value by setting is: under setting [1], 16.63%; under setting [2], 30.10%; (Table 2, 0.005 w/v % in medium) 73.81%; under setting [3], 95.51%; (Table 2, 0.025 w/v % in medium) 99.45%; (Table 2, 0.05 w/v % in medium) 97.34%.

For `CC1(C)C2CC=C(CCC=O)C1C2` (stereo not shown) [3-(6,6-Dimethyl-bicyclo[3.1.1]hept-2-en-2-yl)propanal], the inhibition at 0.0012 % under setting [10] is 0%. In addition, the inhibition at 0.0025 % under setting [11] turned out to be 4.58%. The inhibition at 0.005 % under setting [12] is 82.9%. Under setting [13], the inhibition at 0.0125 % came to 96.7%. Further, the inhibition at 0.025 % under setting [14] was found to be 100%. For the same compound, the inhibition at 0.05 % under setting [15] is 96.3%.

Regarding `c1nc2c(o1)CCCCCCCCCC2` [4,5,6,7,8,9,10,11,12,13-Decahydrocyclododeca-1,3-oxazole], the inhibition at 0.0012 % under setting [10] is 0%. The inhibition at 0.0025 % under setting [11] is 0%. In addition, the inhibition at 0.005 % under setting [12] came out at 52.2%.

As to `CC(C)(C)C1CCC(O)CC1` (stereo not shown) [4-tert-Butyl-1-cyclohexanol], under setting [4], the inhibition at 0.0012 % was found to be 0%. In addition, the inhibition at 0.0025 % under setting [5] worked out at 0%. In addition, the inhibition at 0.006 % under setting [6] was determined as 0%. For the same compound, under setting [7], the inhibition at 0.0125 % was 0%. Under setting [8], the inhibition at 0.025 % was 59.8%. In addition, the inhibition at 0.05 % under setting [9] was found to be 89.1%.

Consider `CC1=CC2CC(C=O)C1CC2C(C)C` (stereo not shown) [8-Isopropyl-6-methyl-bicyclo[2.2.2]oct-5-ene-2-carbaldehyde], for which the inhibition at 0.0012 % under setting [10] is 18.9%. Moreover, the inhibition at 0.0025 % under setting [11] is 28.3%. Also, the inhibition at 0.005 % under setting [12] stood at 76.9%. Further, the inhibition at 0.0125 % under setting [13] was determined as 84.5%. In addition, under setting [14], the inhibition at 0.025 % worked out at 82.9%. For the same compound, the inhibition at 0.05 % under setting [15] stood at 88.2%.

Take `CC=CCCCCCCCC=O` [9-Undecenal]: the inhibition at 0.0012 % under setting [10] was 0%. The inhibition at 0.0025 % under setting [11] stood at 0%. Moreover, under setting [12], the inhibition at 0.005 % worked out at 62.4%. The inhibition at 0.0125 % under setting [13] is 89%. In addition, under setting [14], the inhibition at 0.025 % was 81.8%. Under setting [15], the inhibition at 0.05 % was found to be 77.9%.

With `C=CCCCCCCCCC=O` [10-Undecenal], the inhibition at 0.0012 % under setting [10] came out at 3%. In addition, under setting [12], the inhibition at 0.005 % is 49.2%.

For `CC/C(=C\C[C@H]1CC=C(C)C1(C)C)CO` [(-)-(2E)-2-Ethyl-4-[(1R)-2,2,3-trimethyl-3-cyclopenten-1-yl]-2-buten-1-ol], the inhibition at 0.0012 % under setting [4] worked out at 0%. In addition, the inhibition at 0.0025 % under setting [5] was found to be 21.2%. Also, the inhibition at 0.006 % under setting [6] came to 70.8%. Under setting [7], the inhibition at 0.0125 % amounted to 80%. For the same compound, the inhibition at 0.025 % under setting [8] was 80.3%.

As to `CCCCCCC/C=C/C=O` [(E)-2-Decenal], the inhibition at 0.0012 % under setting [10] was 22%. In addition, the inhibition at 0.0025 % under setting [11] was determined as 28.2%. Under setting [12], the inhibition at 0.005 % came out at 66.6%. Moreover, the inhibition at 0.0125 % under setting [13] stood at 90.1%. The inhibition at 0.025 % under setting [14] was 100%.

On to `CCCCCCCCC/C=C/C=O` [(E)-2-Dodecenal], for which, under setting [16], the inhibition at 0.0006 % is 10.4%. Under setting [10], the inhibition at 0.0012 % amounted to 29.7%. Further, under setting [11], the inhibition at 0.0025 % is 55.4%. Under setting [12], the inhibition at 0.005 % is 86.9%. The inhibition at 0.0125 % under setting [13] worked out at 94%.

On to `CCCCC/C=C/CCC=O` [(E)-4-Decenal], for which the inhibition at 0.0012 % under setting [10] is 22%. Further, the inhibition at 0.0025 % under setting [11] is 28.2%. For the same compound, under setting [12], the inhibition at 0.005 % amounted to 66.6%. Besides, the inhibition at 0.0125 % under setting [13] was 90.1%. The inhibition at 0.025 % under setting [14] is 100%.

Turning to `CCCCCCC/C=C\CCC=O` [(Z)-4-Dodecenal], the inhibition at 0.0006 % under setting [16] worked out at 0%. The inhibition at 0.0012 % under setting [10] is 0%. The inhibition at 0.0025 % under setting [11] came out at 6.96%. The inhibition at 0.005 % under setting [12] turned out to be 76.5%.

In the case of `CC1(C)CCCC2(C)C1CCC1(C)OCCC12` (stereo not shown) [Ambrox ®, 8,12-epoxy-13,14,15,16-tetranorlabdane], the “Ingredient Malodor Inhibition Value (%)” value turned out to be 0.00% (0.0012 w/v % in medium), 0.00% (0.0025 w/v % in medium), 18.23% (0.05 w/v % in medium) and 38.00% (0.1 w/v % in medium).

Take `CC(C)(C)c1ccc(CCC=O)cc1` [Bourgeonal, 3-(4-tert-butylphenyl)propanal]: the inhibition at 0.0012 % under setting [4] is 4.15%. In addition, the inhibition at 0.0025 % under setting [5] was determined as 7.06%. The inhibition at 0.006 % under setting [6] was found to be 42.6%.

One may read the inhibition as the relative decrease from the control value, in per cent.
